From PMC8442276, “Inter-laboratory comparison of water solubility methods applied to difficult-to-test substances” (BMC Chemistry, 2021)
Values after ≈ are worked out from the molar mass of the structure shown. Like-named read-outs stand apart in the source and are kept apart here. Marks after values point to notes of the source that are not given here.

What was measured:
[1] = Water solubility by slow-stir method; format: physicochemical; details: for solubility: reagent grade water in sealed all-glass aspirator bottles
Description: The slow-stir water solubility method uses glass vessels, at least one liter in volume, to which reagent grade water is added. The typical bottle contains a sampling port or spigot at the bottom of the vessel and is filled to a water column height approximating that of the vessel’s tapered shoulders. Slow stir systems are depicted in Additional file 1: Figure S1. This configuration minimizes headspace but maximizes the test substance—water interface. […] The top opening of the vessels is tightly sealed to minimize volatile loss of neat test substance from the system. The excess test substance provides a supply of free product to dissolve and, in the case of volatile substances, evaporate into the headspace. The system is mixed with a minimal vortex imparting just enough energy to move the small dollop of test substance and impart a slight dimple (< 0.5 cm) below the water surface. Care is taken to mix slowly so as to avoid emulsifying the test substance. Water samples are withdrawn from the bottom sampling port of the vessel, extracted and analyzed. As necessary, specific sampling techniques for dissolved volatile organics are used including: the use of gas tight syringes, minimizing sample transfer, and reduced storage duration prior to analysis. Sampling from slow-stir systems occurs over daily or weekly intervals until analysis indicates equilibrium has been reached representing maximum water solubility. Larger test (i.e. 8–20 L) vessels are generally used when the associated analytical method requires extraction of large water sample volumes and also provide a greater surface-to-volume ratio which can be advantageous, especially for surface active compounds. For substances where the solubility is extremely low (i.e. < 10 µg/L) lengthy equilibration periods (weeks-months) may be needed.
The slow-stir water solubility method is not currently cited in existing regulatory guidelines though a number of publications describe its application to difficult-to-test liquid compounds [11–14]. In this ring test, each laboratory employed all glass aspirator bottles with sampling spigots located toward the bottom of the vessels. Water volumes ranged from 0.8 to 4 L with initial vessel headspace accounting for 5 to 20% of the entire vessel volume. n-Hexylcyclohexane loadings ranged from 0.4 to 400 mg/L. The vessels were sealed with Teflon™, polypropylene, glass or high density polyethylene screw plugs or stoppers. Water was stirred at a rate imparting little to no visible vortex and stirring rates were estimated between 80 and 250 rpm. The specific experimental parameters used by each of the participating labs in applying the slow-stir method are listed in Additional file 1: Table S2.

[2] = Water solubility by column elution (generator column) method, OECD 105; format: physicochemical
Description: The column elution method as applied in this ring test is described in several regulatory test guidelines. The typical generator column consists of two concentric glass columns. The inner, narrow column is packed with test substance. The solid test substance is typically dissolved in a volatile solvent which is then pre-loaded onto an inert support phase (e.g. glass beads, diatomaceous earth, chromatographic support material) by rotary evaporation to coat the support phase and then remove the solvent. Alternatively, some practitioners load the column directly with ca. 0.5 g of neat test substance which is retained with plugs of fused silica wool. The outer column provides temperature control (20 °C) as it is connected to a recirculating water bath. Reagent grade water is pumped through the inner column contacting the test substance column at a low flow rate (i.e. < 1 mL/min). The water eluate is collected, extracted and analyzed. Consecutive fractions are collected until the concentration of test substance in water plateaus indicating equilibrium water solubility has been reached. The experiment is then repeated at a flow rate approximately one-half that applied in the first trial to confirm that equilibrium has been reached. In this ring test, two of the five participating labs applied dodecahydrotriphenylene dissolved in solvent to an inert support phase. The solvent was evaporated and the support phase coated with the test compounds. The remaining three laboratories packed the columns with neat test substance. Across the five laboratories, the column flow for the first run ranged from 0.4 to 0.8 mL/min. The volume of each fraction collected for analysis ranged from 5 to 25 mL. Details of the experimental parameters used by each of the participating labs in applying the generator column method are listed in Additional file 1: Table S1.

| Compound | Mean measured water solubility, inter-laboratory mean ([1]; 20 °C, mean of n = 5 labs) [µg/mL] | solubility ([1]; 20 °C, mean of n = 5 labs, read-out: Mean measured water solubility, inter-laboratory mean) [µg/mL] | solubility ([1]; 20 °C, n = 5 labs, read-out: Range of measured water solubility values across labs) [µg/mL] | solubility ([1]; 20 °C, water, thermodynamic from solid, Laboratory B, second attempt, read-out: Mean measured Concentration (water solubility)) [µg/mL] | solubility ([1]; 20 °C, water, thermodynamic from solid, Laboratory E, second attempt, read-out: Mean measured Concentration (water solubility)) [µg/mL] | solubility ([1]; water, thermodynamic from solid, Laboratory A, read-out: Mean measured Concentration (water solubility)) [µg/mL] | solubility ([1]; water, thermodynamic from solid, Laboratory B, first attempt, equilibrium not demonstrated, not included in mean, read-out: Mean measured Concentration (water solubility), first attempt) [µg/mL] | solubility ([1]; water, thermodynamic from solid, Laboratory C, read-out: Mean measured Concentration (water solubility)) [µg/mL] | solubility ([1]; water, thermodynamic from solid, Laboratory D, read-out: Mean measured Concentration (water solubility)) [µg/mL] | solubility ([1]; water, thermodynamic from solid, Laboratory E, first attempt, equilibrium not demonstrated, not included in mean, read-out: Mean measured Concentration (water solubility), first attempt) [µg/mL] | Mean Measured Concentration (water solubility) ([2]; Laboratory A, column packed directly with neat solid) | Mean Measured Concentration (water solubility) ([2]; Laboratory B, test substance on support) [µg/L] | Mean Measured Concentration (water solubility) ([2]; Laboratory C, test substance on support) [µg/L] | Mean Measured Concentration (water solubility) ([2]; Laboratory D, column packed directly with neat solid) | Mean Measured Concentration (water solubility) ([2]; Laboratory E, column packed directly with neat solid, statistical outlier, not included in mean) [µg/L] | Mean measured water solubility, inter-laboratory mean ([2]; column elution, 20 °C, mean of n = 4 labs (Lab E excluded as outlier)) [µg/mL] | Range of measured water solubility values across labs ([2]; column elution, 20 °C, n = 4 labs) [µg/mL] |
| --- | --- | --- | --- | --- | --- | --- | --- | --- | --- | --- | --- | --- | --- | --- | --- | --- | --- |
| CCCCCCC1CCCCC1 [n-Hexylcyclohexane] | 0.014 | 0.014 (≈ 0.0832 µM) | 0.011 to 0.016 (≈ 0.0654 to 0.0951 µM) | 0.012 (≈ 0.0713 µM) | 0.016 (≈ 0.0951 µM) | 0.015 (≈ 0.0891 µM) | 0.0056 (≈ 0.0333 µM) | 0.014 (≈ 0.0832 µM) | 0.011 (≈ 0.0654 µM) | 0.0057 (≈ 0.0339 µM) |  |  |  |  |  |  |  |
| C1CCc2c(c3c(c4c2CCCC4)CCCC3)C1 [Dodecahydrotriphenylene] |  |  |  |  |  |  |  |  |  |  | 2.8^p µg/L | 3.2 | 2.1 | 2.3^p µg/L | 0.66 | 0.0026 | 0.0021 to 0.0032 |
